From patent publication US20180369268A1, “METHODS FOR IDENTIFYING INHIBITORS OF "STIMULATOR OF INTERFERON GENE"- DEPENDENT INTERFERON PRODUCTION” (ADURO BIOTECH, INC., priority 2015, published 2018)
Like-named read-outs stand apart in the source and are kept apart here.

Experiments:
Assay in all cases: Differential scanning fluorometry (DSF) Tm shift with purified STING AA140-379
Assay type in all cases: binding
hSTING WT = molecular target: T1, hSTING WT (Homo sapiens, UniProt Q86WV6, H232R); conditions: ligand 1 mM, 1 mg/ml STING AA140-379
T1 construct: DNA encoding amino acids 140-379 (amino acid numbering corresponding to Swiss Prot Q86WV6); 6xHIS-SUMO (with TEV site) (N, cleaved yes); made in house; host or cells: Rosetta2 (DE3) E. coli
T1 sequence (Q86WV6 140-379 H232R): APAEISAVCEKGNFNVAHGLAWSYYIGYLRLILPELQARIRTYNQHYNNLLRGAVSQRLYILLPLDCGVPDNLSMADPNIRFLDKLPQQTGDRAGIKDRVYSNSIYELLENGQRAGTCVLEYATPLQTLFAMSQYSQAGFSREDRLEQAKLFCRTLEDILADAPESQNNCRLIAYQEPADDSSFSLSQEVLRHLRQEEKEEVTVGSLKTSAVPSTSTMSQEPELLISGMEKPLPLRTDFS
Excerpt: (§1) DNA encoding amino acids 140-379 (amino acid numbering corresponding to Swiss Prot Q86WV6) was amplified from plasmids containing the full length sequence of human STING alleles via polymerase chain reaction with the following primers: forward […] (SEQ ID NO: 9) and reverse […] (SEQ ID NO: 10). STING variant alleles were assigned according to Yi, et al, (2013), PLoS One, 8(10), e77846 (DOI: 10.1371/journal.pone.0077846. PCR products were cloned into bacterial expression vector encoding a N-terminal hexa-histidine affinity tag (6×HIS) followed by a small ubiquitin-like modifier (SUMO) solubility sequence (Butt, et al, (2005) Protein expression and purification 43.1, 1-9) and tobacco etch virus protease cleavage site (TEV) using ligation independent cloning (Aslanidis, et al, (1990) Nucleic acids research, 18.20, 6069-6074).
(§2) Plasmids encoding 6×HIS-SUMO-TEV-STING amino acids 140-379 were transformed into Rosetta2 (DE3) E. coli cells (EMD Millipore) for protein expression. Cells were grown in lysogeny broth at 37° C. until a […] absorbance of 0.6 was reached. Cells were then transferred to 18° C. and protein expression was induced overnight by the addition of isopropyl β-D-1-thiogalactopyranoside to the media at a concentration of 0.25 mM. Cells were harvested by centrifugation at 6,000 times gravity for 10 minutes. Cell pellets were re-suspended on ice in a buffer containing 50 mM Tris hydrochloride (Tris-HCl) pH 7.5, 500 mM sodium chloride (NaCl), 20 mM imidazole, 10% glycerol, 1 mM tris(2-carboxyethyl)phosphine hydrochloride (TCEP) and protease inhibitor tablet (Pierce) (Buffer A). Cells were lysed using an S-450D sonifier (Emmerson industrial) on ice. Cell lysate was centrifuged at 15,000 times gravity for 30 minutes at 4° C. Soluble material was applied to nickel-nitrilotriacetic acid (Ni-NTA) coupled Sepharose CL-6B (Qiagen) for 1 hour with gentle rocking at 4° C. After transfer to a gravity flow poly-prep column (Bio-Rad), resin was washed extensively in buffer A. Protein was eluted from the column in a buffer containing 20 mM Tris-HCl pH 7.5, 150 mM NaCl, 300 mM imidazole, 10% glycerol and 0.5 mM TCEP. To remove the 6×HIS-SUMO tag eluted protein was mixed with TEV protease (Sigma) at a ratio of 1:250 (w:w) and dialyzed overnight against a buffer containing 20 mM Tris-HCl pH 7.5, 150 mM NaCl, 5 mM imidazole, 10% glycerol and 0.5 mM TCEP. TEV protease and 6×HIS-SUMO tags were depleted by the addition of Ni-NTA resin (Qiagen) to the sample, purified STING amino acids 140-379 was collected by removal of the resin using a poly-prep column STING AA140-379 was concentrated with a 10,000 Dalton molecular weight cutoff centrifuge concentrator (EMD Millipore) to a final concentration of approximately 10 mg/ml. Protein was aliquoted, flash frozen in liquid nitrogen and stored at −80° C. until use.
(§3) Differential scanning fluorometry (DSF) is a technique that measures the ability of ligands to bind to and stabilize purified proteins (Niesen, et al, (2007) Nature protocols 2.9, 2212-2221). The protein is heated in the presence of a dye that binds to and fluoresces in hydrophobic environments. The protein is thermally denatured by heating resulting in increased dye binding to the unfolded protein and fluorescence. The temperature midpoint (Tm) of a proteins denaturation is established by calculating the half maximal value of the denaturation curve. The temperature midpoint of the protein in the presence of a ligand is directly related to the affinity of the ligand for the protein and therefore its ability to stabilize the protein at higher temperatures.
(§4) DSF was performed in a 20 μL reaction comprising 20 mM Tris-HCl pH 7.5, 150 mM NaCl, 1:500 dilution of SYPRO Orange (Life Technologies), 1 mg/ml purified STING AA140-379 protein and ligand at a concentration of 1 mM. Wild type hSTING, HAQ allele hSTING and/or REF allele hSTING were used with scaffold molecules of the invention as listed in Table 2.

hSTING REF allele = molecular target: T2, hSTING REF allele (Homo sapiens, UniProt Q86WV6); conditions: ligand 1 mM, 1 mg/ml STING AA140-379
T2 construct: DNA encoding amino acids 140-379 (amino acid numbering corresponding to Swiss Prot Q86WV6); 6xHIS-SUMO (with TEV site) (N, cleaved yes); made in house; host or cells: Rosetta2 (DE3) E. coli
T2 sequence (Q86WV6 140-379): as the sequence (Q86WV6 140-379 H232R) above, with R93H counted along it
Excerpt: as §1, §2, §3, §4

hSTING HAQ allele = molecular target: T3, hSTING HAQ allele (Homo sapiens, UniProt Q86WV6, G230A/H232R/R293Q); conditions: read-out: hSTING Tm Shift HAQ
T3 construct: DNA encoding amino acids 140-379 (amino acid numbering corresponding to Swiss Prot Q86WV6); 6xHIS-SUMO (with TEV site) (N, cleaved yes); made in house; host or cells: Rosetta2 (DE3) E. coli
T3 sequence (Q86WV6 140-379 G230A/H232R/R293Q): as the sequence (Q86WV6 140-379 H232R) above, with G91A, R154Q counted along it
Excerpt: as §1, §2, §3, §4

[1] = DSF, ligand 1 mM, 1 mg/ml STING AA140-379

Compound | hSTING Tm Shift WT (hSTING WT) [°C] | hSTING Tm Shift REF (hSTING REF allele) [°C] | ΔTm at 1000 µM (hSTING HAQ allele; [1]) [°C] | ΔTm at 1000 µM (hSTING HAQ allele) [°C]
CC(C)(C)[Si](C)(C)O[C@H]1[C@H]2O[P@@](=O)(S)OC[C@H]3O[C@@H](n4cnc5c(N)ncnc54)[C@H](F)[C@@H]3O[P@](=O)(S)OC[C@H]1O[C@H]2n1cnc2c(N)ncnc21 [Compound 6a, dithio-[SP, RP]-cyclic-[3′OTBS-A(2′,5′)p-2′F-A(3′,5′)p]] | 9.0 | 4.8 |  | 20.2
Nc1nc(N)c2ncn([C@@H]3O[C@@H]4CO[P@@](=O)(S)O[C@H]5[C@@H](O)[C@H](n6cnc7c(N)nc(N)nc76)O[C@@H]5CO[P@@](=O)(S)O[C@H]4[C@H]3O)c2n1 [Compound 23, (2R,3R,3aS,5R,7aR,9R,10R,10aS,12R,14aR)-2,9-bis(2,6-diamino-9H-purin-9-yl)-3,10-dihydroxy-5,12-dimercaptooctahydro-2H,7H-difuro[3,2-d:3′,2′-j][1,3,7,9]tetraoxa[2,8]diphosphacyclododecine 5,12-dioxide] | 12.2 | 8.3 | 15.1 | 
Nc1nc(N)c2ncn([C@@H]3O[C@@H]4CO[P@@](=O)(S)O[C@H]5[C@@H](O)[C@H](n6cnc7c(N)nc(N)nc76)O[C@@H]5CO[P@](=O)(S)O[C@H]4[C@H]3O)c2n1 [Compound 23a, (2R,3R,3aS,5R,7aR,9R,10R,10aS,12S,14aR)-2,9-bis(2,6-diamino-9H-purin-9-yl)-3,10-dihydroxy-5,12-dimercaptooctahydro-2H,7H-difuro[3,2-d:3′,2′-j][1,3,7,9]tetraoxa[2,8]diphosphacyclododecine 5,12-dioxide] | 10.0 | 3.1 | 6.3 | 
CC(C)C(=O)Nc1nc2c(ncn2[C@@H]2O[C@@H]3CO[P@@](=O)(S)O[C@H]4[C@@H](F)[C@H](n5cnc6c(=O)[nH]c(NC(=O)C(C)C)nc65)O[C@@H]4CO[P@@](=O)(S)O[C@H]3[C@H]2F)c(=O)[nH]1 [Compound 32, N,N′-(((2R,3R,3aR,5R,7aR,9R,10R,10aR,12R,14aR)-3,10-difluoro-5,12-dimercapto-5,12-dioxidooctahydro-2H, 7H-difuro[3,2-d:3′,2′-j][1,3,7,9]tetraoxa[2,8]diphosphacyclododecine-2,9-diyl)bis(6-oxo-6,9-dihydro-1H-purine-9,2-diyl))bis(2-methylpropanamide)] | 10.7 | 10.5 | 11.5 | 
Nc1ccn([C@@H]2O[C@@H]3CO[P@@](=O)(S)O[C@H]4[C@@H](F)[C@H](n5cnc6c(N)ncnc65)O[C@@H]4CO[P@@](=O)(S)O[C@H]3[C@H]2F)c(=O)n1 [Compound 37, 4-amino-1-((2R,3R,3aR,5R,7aR,9R,10R,10aR,12R,14aR)-9-(6-amino-9H-purin-9-yl) 3,10-difluoro-5,12-dimercapto 5,12-dioxidooctahydro-2H,7H-difuro[3,2-d:3′,2′-j][1,3,7,9]tetraoxa[2,8]diphosphacyclododecin-2-yl)pyrimidin-2(1H)-one] | 8.2 | 7.5 | 10.3 | 
CC(C)C(=O)Nc1nc2c(ncn2[C@@H]2O[C@@H]3CO[P@@](=O)(S)O[C@@H]4[C@H](O)[C@@H](CO[P@@](=O)(S)O[C@H]3[C@H]2O)O[C@H]4n2cnc3c(NC(=O)c4ccccc4)ncnc32)c(=O)[nH]1 [Compound 42, dithio-[RP, RP]-cyclic-[ibG(3′,5′)p-BzA(2′,5′)p]] |  |  | 7.6 | 
Nc1nc2c(ncn2[C@@H]2O[C@@H]3CO[P@](=O)(S)O[C@@H]4[C@H](O)[C@@H](CO[P@](=O)(S)O[C@H]3[C@H]2O)O[C@H]4n2cnc3c(N)ncnc32)c(=O)[nH]1 [Compound 43] |  |  | 10.5 | 
Nc1ncnc2c1ncn2[C@H]1O[C@H]2CO[P@](=O)(S)O[C@@H]3[C@H](O)[C@@H](n4cnc5c(N)ncnc54)O[C@H]3CO[P@](=O)(S)O[C@@H]2[C@@H]1O [Compound 48, (2S,3S,3aR,5S,7aS,9S,10S,10aR,12S,14aS)-2,9-bis(6-amino-9H-purin-9-yl)-3,10-dihydroxy-5,12-dimercaptooctahydro-2H,7H-difuro[3,2-d:3′,2′-j][1,3,7,9]tetraoxa[2,8]diphosphacyclododecine 5,12-dioxide] | 2.0 | 2.3 | 2.3 | 
C#CCOc1nc(N)nc2c1ncn2[C@@H]1O[C@@H]2COP(=O)(O)O[C@H]3[C@@H](O)[C@H](n4cnc5c(=O)[nH]c(N)nc54)O[C@@H]3COP(=O)(O)O[C@H]2[C@H]1O [compound 25, 2-amino-9-((2R,3R,3aS,7aR,9R,10R,10aS,14aR)-9-(2-amino-6-(prop-2-yn-1-yloxy)-9H-purin-9-yl)-3,5,10,12-tetrahydroxy-5,12-dioxidooctahydro-2H,7H-difuro[3,2-d:3′,2′-j][1,3,7,9]tetraoxa[2,8]diphosphacyclododecin-2-yl)-1,9-dihydro-6H-purin-6-one] |  |  | 7.2 | 

Second part, led by results:

hSTING Tm Shift WT (hSTING WT) [°C] | hSTING Tm Shift REF (hSTING REF allele) [°C] | ΔTm at 1000 µM (hSTING HAQ allele; [1]) [°C] | Compound | ΔTm at 1000 µM (hSTING HAQ allele) [°C]
5.6 | 5.3 | 6.4 | Nc1ccn([C@@H]2O[C@@H]3CO[P@](=O)(S)O[C@H]4[C@@H](F)[C@H](n5cnc6c(N)ncnc65)O[C@@H]4CO[P@@](=O)(S)O[C@H]3[C@H]2F)c(=O)n1 [Compound 37a, 4-amino-1-((2R,3R,3aR,5R,7aR,9R,10R, 10aR,12S,14aR)-9-(6-amino-9H-purin-9-yl)-3,10-difluoro-5,12-dimercapto-5,12-dioxidooctahydro-2H,7H-difuro[3,2-d: 3′,2′-j][1,3,7,9]tetraoxa[2,8]diphosphacyclododecin-2-yl)pyrimidin-2(1H)-one] | 
2.9 | 6.3 | 6.6 | Nc1ncnc2c1ncn2[C@H]1O[C@H]2CO[P@@](=O)(S)O[C@@H]3[C@H](O)[C@@H](n4cnc5c(N)ncnc54)O[C@H]3CO[P@](=O)(S)O[C@@H]2[C@@H]1O [Compound 48a, Triethylammonium (2S,3S,3aR,5R,7aS,9S,10S,10aR,12S,14aS)-2,9-bis(6-amino-9H-purin-9-yl)-3,10-dihydroxyoctahydro-2H, 7H-difuro[3,2-d: 3′,2′-j][1,3,7,9]tetraoxa[2,8]diphosphacyclododecine-5,12-bis(thiolate) 5,12-dioxide] | 
3.0 | 6.4 | 3.5 | Nc1ncnc2c1ncn2[C@H]1O[C@H]2CO[P@@](=O)(S)O[C@@H]3[C@H](O)[C@@H](n4cnc5c(N)ncnc54)O[C@H]3CO[P@@](=O)(S)O[C@@H]2[C@@H]1O [Compound 48b, triethylammonium (2S,3S,3R,5R,7aS,9S,10S,10aR,12R,14aS)-2,9-bis(6-amino-9H-purin-9-yl)-3,10-dihydroxyoctahydro-2H,7H-difuro[3,2-d: 3′,2′-j][1,3,7,9]tetraoxa[2,8]diphosphacyclododecine-5,12-bis(thiolate) 5,12-dioxide] | 
